Read-outs that look alike come from different tables or passages of the source.
Experiments:
[1] = molecular target: T1, AChE (E.C. 3.1.1.7, type V-S) (Electrophorus electricus, UniProt O42275); assay: biochemical; conditions: Ellman's method, electric eel AChE, mean ± SD
T1 construct: purchased Sigma-Aldrich type V-S (catalogue number not given); host or cells: electric eel (natural source)
Experimental: (§1) The inhibitory activity of the designed compounds against BuChE and AChE was evaluated using Ellman's method. […] AChE (E.C. 3.1.1.7, type V-S, lyophilized powder, from the electric eel, 1000 units) and BuChE (E.C. 3.1.1.8, from equine serum), acetylthiocholine iodide (ATCI), butyrylthiocholine iodide (BTCI), and 5,5-dithiobis-(2-nitrobenzoic acid) (DTNB) were all acquired from Sigma-Aldrich. Potassium dihydrogen phosphate, dipotassium hydrogen phosphate, potassium hydroxide, and sodium hydrogen carbonate were obtained from Fluka. […] In this regard, each one of the wells included a 50 µL potassium phosphate buffer, 25 µL sample dissolved in 50 % methanol and 50 % DMSO, and 25 µL enzyme (the final concentration 0.22 U/mL in buffer). Thereafter, the wells were pre-incubated for 15 min at room temperature, and 125 µL DTNB (3 mM in buffer) was added to each plate. […] As well, the IC50 values were expressed as mean ± SD. The percentage of enzyme's inhibition was calculated by comparing with a blank sample (100 % activity). The described method was also used for the BuChE inhibition assay.

BuChE (E.C. 3.1.1.8) = molecular target: T2, BuChE (E.C. 3.1.1.8) (Equus caballus, UniProt P81908); assay: biochemical; conditions: for IC50: Ellman's method, equine serum BuChE, mean ± SD; for SI (selectivity towards BuChE): SI ratio, values match IC50 AChE / IC50 BuChE
T2 construct: purchased Sigma-Aldrich; host or cells: equine serum (natural source)
Experimental: as §1

AChE = test system: AChE; set-up: method as in earlier work; conditions: Figure 2, known inhibitors, ref Wajid et al., 2019, Wu et al., de Andrade et al., Joubert and Kapp, 2020; cited from earlier work
BuChE = conditions: ref Wajid et al., 2019, Wu et al., cited from earlier work
[2] = Figure 2, known inhibitors, de Andrade et al., Joubert and Kapp, 2020

T2 sequence (P81908 whole entry): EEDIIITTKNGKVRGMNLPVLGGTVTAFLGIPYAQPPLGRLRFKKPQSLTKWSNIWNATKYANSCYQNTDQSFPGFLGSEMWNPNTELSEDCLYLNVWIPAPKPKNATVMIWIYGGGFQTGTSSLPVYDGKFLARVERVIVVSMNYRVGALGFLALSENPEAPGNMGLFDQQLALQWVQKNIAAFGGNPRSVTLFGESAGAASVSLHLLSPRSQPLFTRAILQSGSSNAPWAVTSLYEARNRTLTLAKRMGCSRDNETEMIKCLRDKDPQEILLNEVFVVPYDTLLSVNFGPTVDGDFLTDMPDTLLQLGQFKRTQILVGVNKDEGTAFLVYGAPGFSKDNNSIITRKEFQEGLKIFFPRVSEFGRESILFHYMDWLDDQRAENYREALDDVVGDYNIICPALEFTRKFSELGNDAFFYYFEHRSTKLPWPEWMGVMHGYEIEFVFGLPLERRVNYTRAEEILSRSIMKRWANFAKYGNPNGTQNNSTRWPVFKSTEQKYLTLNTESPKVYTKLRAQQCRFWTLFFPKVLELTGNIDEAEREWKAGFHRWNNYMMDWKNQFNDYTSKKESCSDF
T1 sequence (O42275 24-633): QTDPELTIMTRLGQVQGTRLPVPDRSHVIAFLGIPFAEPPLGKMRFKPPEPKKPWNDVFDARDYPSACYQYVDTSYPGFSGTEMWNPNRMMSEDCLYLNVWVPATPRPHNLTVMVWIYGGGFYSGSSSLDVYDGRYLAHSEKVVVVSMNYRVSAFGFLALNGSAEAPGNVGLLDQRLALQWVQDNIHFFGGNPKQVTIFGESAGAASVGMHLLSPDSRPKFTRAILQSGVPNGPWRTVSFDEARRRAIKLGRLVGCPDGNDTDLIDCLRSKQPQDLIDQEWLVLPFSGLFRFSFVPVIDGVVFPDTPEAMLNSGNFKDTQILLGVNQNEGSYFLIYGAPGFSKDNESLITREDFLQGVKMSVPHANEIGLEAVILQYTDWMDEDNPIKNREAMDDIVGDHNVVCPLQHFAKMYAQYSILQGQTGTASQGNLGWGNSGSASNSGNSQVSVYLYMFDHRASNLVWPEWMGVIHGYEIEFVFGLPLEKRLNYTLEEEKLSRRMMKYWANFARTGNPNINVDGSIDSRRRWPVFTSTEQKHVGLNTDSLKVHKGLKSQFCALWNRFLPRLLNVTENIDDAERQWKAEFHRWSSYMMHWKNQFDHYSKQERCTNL

Structure (SMILES) | IC50 [1] | IC50 (BuChE (E.C. 3.1.1.8)) | SI (selectivity towards BuChE) (BuChE (E.C. 3.1.1.8)) | further results
Cc1ccc(CN2CCC(c3nc(-c4ccc(C)cc4)no3)CC2)cc1 [6r, 5-(1-(4-methylbenzyl)piperidin-4-yl)-3-(p-tolyl)-1,2,4-oxadiazole] | > 100 µM | 62.8 ± 0.65 µM | > 1.59 | –
Fc1ccc(-c2noc(C3CCN(Cc4ccc(Cl)cc4)CC3)n2)cc1 [6l, 5-(1-(4-chlorobenzyl)piperidin-4-yl)-3-(4-fluorophenyl)-1,2,4-oxadiazole] | > 100 µM | > 100 µM | – | –
Clc1ccc(-c2noc(C3CCN(Cc4ccccc4)CC3)n2)cc1 [6c, 5-(1-benzylpiperidin-4-yl)-3-(4-chlorophenyl)-1,2,4-oxadiazole] | > 100 µM | > 100 µM | – | –
Fc1ccc(-c2noc(C3CCN(Cc4ccccc4)CC3)n2)cc1 [6d, 5-(1-benzylpiperidin-4-yl)-3-(4-fluorophenyl)-1,2,4-oxadiazole] | 21.16 ± 0.13 µM | 24.8 ± 0.97 µM | 0.85 | –
Cc1ccc(CN2CCC(c3nc(-c4ccc(F)cc4)no3)CC2)cc1 [6t, 3-(4-fluorophenyl)-5-(1-(4-methylbenzyl)piperidin-4-yl)-1,2,4-oxadiazole] | > 100 µM | > 100 µM | – | –
c1ccc(CN2CCC(c3nc(-c4ccccc4)no3)CC2)cc1 [6a, 5-(1-benzylpiperidin-4-yl)-3-phenyl-1,2,4-oxadiazole] | 35.5 µM | 14.2 µM | 2.49 | –
O=C(Nc1c(Cl)cccc1Cl)c1ccc(Br)cc1 [compound 2] | – | – | – | AChE IC50 (AChE): inactive; IC50 (BuChE; Figure 2, known inhibitor): 0.8 µM
Fc1ccc(-c2noc(C3CCN(Cc4ccccc4Cl)CC3)n2)cc1 [6p, 5-(1-(2-chlorobenzyl)piperidin-4-yl)-3-(4-fluorophenyl)-1,2,4-oxadiazole] | > 100 µM | > 100 µM | – | –
Cc1ccc(-c2noc(C3CCN(Cc4ccccc4Cl)CC3)n2)cc1 [6n, 5-(1-(2-chlorobenzyl)piperidin-4-yl)-3-(p-tolyl)-1,2,4-oxadiazole] | > 100 µM | 5.07 µM | greater than 19.72 | –
Fc1ccc(CN2CCC(c3nc(-c4ccccc4)no3)CC2)cc1 [6e, 5-(1-(4-fluorobenzyl)piperidin-4-yl)-3-phenyl-1,2,4-oxadiazole] | > 100 µM | > 100 µM | – | –
Fc1ccc(CN2CCC(c3nc(-c4ccc(F)cc4)no3)CC2)cc1 [6h, 5-(1-(4-fluorobenzyl)piperidin-4-yl)-3-(4-fluorophenyl)-1,2,4-oxadiazole] | > 100 µM | > 100 µM | – | –
Cc1ccc(CN2CCC(c3nc(-c4ccc(Cl)cc4)no3)CC2)cc1 [6s, 3-(4-chlorophenyl)-5-(1-(4-methylbenzyl)piperidin-4-yl)-1,2,4-oxadiazole] | > 100 µM | > 100 µM | – | –
Cc1ccc(-c2noc(C3CCN(Cc4ccc(Cl)cc4)CC3)n2)cc1 [6j, 5-(1-(4-chlorobenzyl)piperidin-4-yl)-3-(p-tolyl)-1,2,4-oxadiazole] | > 100 µM | 50.3 ± 0.77 µM | > 1.98 | –
Cc1ccc(CN2CCC(c3nc(-c4ccccc4)no3)CC2)cc1 [6q, 5-(1-(4-methylbenzyl)piperidin-4-yl)-3-phenyl-1,2,4-oxadiazole] | > 100 µM | > 100 µM | – | –
Cc1ccc(-c2noc(C3CCN(Cc4ccc(F)cc4)CC3)n2)cc1 [6f, 5-(1-(4-fluorobenzyl)piperidin-4-yl)-3-(p-tolyl)-1,2,4-oxadiazole] | > 100 µM | 50.7 ± 0.06 µM | > 1.97 | –
Clc1ccc(CN2CCC(c3nc(-c4ccccc4)no3)CC2)cc1 [6i, 5-(1-(4-chlorobenzyl)piperidin-4-yl)-3-phenyl-1,2,4-oxadiazole] | > 100 µM | > 100 µM | – | –
Cc1ccc(-c2noc(C3CCN(Cc4ccccc4)CC3)n2)cc1 [6b, 5-(1-benzylpiperidin-4-yl)-3-(p-tolyl)-1,2,4-oxadiazole] | > 100 µM | 9.81 µM | > 10.19 | –
Clc1ccc(-c2noc(C3CCN(Cc4ccccc4Cl)CC3)n2)cc1 [6o, 5-(1-(2-chlorobenzyl)piperidin-4-yl)-3-(4-chlorophenyl)-1,2,4-oxadiazole] | > 100 µM | 81.2 ± 0.98 µM | > 1.23 | –
Clc1ccccc1CN1CCC(c2nc(-c3ccccc3)no2)CC1 [6m, 5-(1-(2-chlorobenzyl)piperidin-4-yl)-3-phenyl-1,2,4-oxadiazole] | > 100 µM | > 100 µM | – | –
Clc1ccc(CN2CCC(c3nc(-c4ccc(Cl)cc4)no3)CC2)cc1 [6k, 5-(1-(4-chlorobenzyl)piperidin-4-yl)-3-(4-chlorophenyl)-1,2,4-oxadiazole] | > 100 µM | > 100 µM | – | –
CCCCCCCNC(=O)Oc1cccc(-c2coc3c4c(ccc3c2=O)OC(C)(C)C=C4)c1F [compound 1] | – | – | – | IC50 (AChE): 297 µM; IC50 (BuChE; [2]): 0.222 µM
COc1cc(C2C3=C(CCCC3=O)NC3=C2C(=O)CCC3)ccc1OCc1ccc(F)cc1 [compound 4] | – | – | – | IC50 (AChE): 125 µM; IC50 (BuChE; [2]): 0.098 µM
Fc1ccc(CN2CCC(c3nc(-c4ccc(Cl)cc4)no3)CC2)cc1 [6g, 3-(4-chlorophenyl)-5-(1-(4-fluorobenzyl)piperidin-4-yl)-1,2,4-oxadiazole] | > 100 µM | > 100 µM | – | –
CC(=O)N[C@@H](Cn1cc(-c2ccccc2)nn1)C(=O)NCC1CCN(Cc2ccccc2)CC1 [compound 3] | – | – | – | IC50 (AChE): > 10 µM; IC50 (BuChE; [2]): 0.00017 µM

From PMC8192883, “Novel 1,2,4-oxadiazole derivatives as selective butyrylcholinesterase inhibitors: Design, synthesis and biological evaluation” (EXCLI Journal, 2021)
